From patent publication US20100222332A1, “PYRAZOLO-PYRAZINES DERIVATIVES USED AS G PROTEIN INHIBITORS” (Ipsen Pharma S.A.S., priority 2007, published 2010)
Where a name gives a salt, the structure may show the parent alone. Read-outs that look alike come from different tables or passages of the source.

Experiments:
Assay type in all cases: cell-based
[1] = tested on: LNCaP (human prostate cancer cells); test: Anti-proliferative activity on LNCaP cell line (WST1 colorimetric test); conditions: treated for 96 hours, read-out: IC50 on the cell proliferation of the LNCaP lines
Method: (§1) By way of example, the effect of a treatment on three human cell lines DU145, LNCaP and A2058 with the compounds of the examples described previously will be studied. The cell lines DU145 and LNCaP (human prostate cancer cells) and A2058 (human melanoma cancer cells) were acquired from the American Tissue Culture Collection (Rockville, Md., USA). The cells placed in 80 μl of Dulbecco's Modified Eagle medium (Gibco-Brl, Cergy-Pontoise, France) completed with 10% foetal calf serum inactivated by heating (Gibco-Brl, Cergy-Pontoise, France), 50000 units/l of penicillin and 50 mg/l streptomycin (Gibco-Brl, Cergy-Pontoise, France), and 2 mM of glutamin (Gibco-Brl, Cergy-Pontoise, France) were seeded on a 96-well plate on day 0. The cells were treated on day 1 for 96 hours with increasing concentrations of each of the compounds to be tested up to 10 μM. At the end of this period, the quantification of the cell proliferation is evaluated by a colorimetric test based on the cleavage of the tetrazolium salt WST1 by mitochondrial dehydrogenases in the viable cells leading to the formation of formazan (Boehringer Mannheim, Meylan, France). These tests are carried out in duplicate with 8 determinations per tested concentration. For each compound to be tested, the values included in the linear part of the sigmoid were retained for linear regression analysis and used in order to estimate the inhibitory concentration IC50. The products are solubilized in dimethylsulphoxide (DMSO) at 10^−2 M and finally used in culture with 0.1% DMSO.

[2] = tested on: A2058 (human melanoma cancer cells); test: Anti-proliferative activity on A2058 cell line (WST1 colorimetric test); conditions: treated for 96 hours, bound given in mM, read-out: IC50 on the cell proliferation of the A2058 lines
Method: as §1

[3] = tested on: DU145 (human prostate cancer cells); test: Anti-proliferative activity on DU145 cell line (WST1 colorimetric test); conditions: DU-145, treated for 96 hours, read-out: IC50 on the cell proliferation of the DU145 lines
Method: as §1

CCCCCC1c2cc(-c3ccccc3)nn2CCN1C(=O)[C@@H](N)CSSC[C@H](N)C(=O)N1CCn2nc(-c3ccccc3)cc2C1CCCCC (mixture of isomers) [Example 20, (2R)-3-({(2R)-2-amino-3-oxo-3-[(4RS)-4-pentyl-2-phenyl-6,7-dihydropyrazolo[1,5-a]pyrazin-5(4H)-yl]propyl}dithio)-1-oxo-1-[(4RS)-4-pentyl-2-phenyl-6,7-dihydropyrazolo[1,5-a]pyrazin-5(4H)-yl]propan-2-amine hydrochloride] showed an IC50 [1] of at most 10 µM, an IC50 [2] of at most 0.01 mM and an IC50 ([3]; unit inferred) of at most 15 µM.

CCCCC1c2cc(-c3ccccc3)nn2CCN1C(=O)[C@@H](N)CSSC[C@H](N)C(=O)N1CCn2nc(-c3ccccc3)cc2C1CCCC (mixture of isomers) [Example 21, (2R)-3-({(2R)-2-amino-3-[(4RS)-4-butyl-2-phenyl-6,7-dihydropyrazolo[1,5-a]pyrazin-5(4H)-yl]-3-oxopropyl}dithio)-1-[(4RS)-4-butyl-2-phenyl-6,7-dihydropyrazolo[1,5-a]pyrazin-5(4H)-yl]-1-oxopropan-2-amine hydrochloride] was tested, and the IC50 [1] was at most 5 µM, the IC50 [2] was at most 0.01 mM and the IC50 [3] was at most 20 µM.

N[C@@H](CSSC[C@H](N)C(=O)N1CCn2nc(-c3ccc(Cl)cc3Cl)cc2C1CCc1ccccc1)C(=O)N1CCn2nc(-c3ccc(Cl)cc3Cl)cc2C1CCc1ccccc1 (mixture of isomers) [Example 22, (2R)-3-({(2R)-2-amino-3-[(4RS)-2-(2,4-dichlorophenyl)-4-(2-phenylethyl)-6,7-dihydropyrazolo[1,5-a]pyrazin-5(4H)-yl]-3-oxopropyl}dithio)-1-[(4RS)-2-(2,4-dichlorophenyl)-4-(2-phenylethyl)-6,7-dihydropyrazolo[1,5-a]pyrazin-5(4H)-yl]-1-oxopropan-2-amine hydrochloride] showed an IC50 [1] of at most 1 µM, an IC50 [2] of at most 0.01 mM and an IC50 [3] of at most 20 µM.

In the case of N[C@@H](CSSC[C@H](N)C(=O)N1CCn2nc(-c3ccccc3)cc2[C@@H]1CC1CCCCC1)C(=O)N1CCn2nc(-c3ccccc3)cc2[C@@H]1CC1CCCCC1 [Example 24, (2R)-3-({(2R)-2-amino-3-[(4S)-4-(cyclohexylmethyl)-2-phenyl-6,7-dihydropyrazolo[1,5-a]pyrazin-5(4H)-yl]-3-oxopropyl}dithio)-1-[(4S)-4-(cyclohexylmethyl)-2-phenyl-6,7-dihydropyrazolo[1,5-a]pyrazin-5(4H)-yl]-1-oxopropan-2-amine hydrochloride], the IC50 [1] is reported as at most 1 µM, the IC50 [2] is reported as at most 0.01 mM and the IC50 ([3]; unit inferred) is reported as at most 15 µM.
